Measurements taken from ChEMBL document CHEMBL1201862, “PubChem BioAssay data set” (2004).
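1) Cells in 96-well plates. 2) Compound, 48 h, 5 concentrations. 3) Linear interpolation between surrounding doses. 4) Unreached endpoint = highest concentration. GI50 marks 50% less growth.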 The source made the active and inactive calls. No stated cut-off is given here; in the data, active = GI50 up to about 1.1 µM and inactive = higher.

Tests used:
Assay in all cases: NCI-60 cell line screen, 48 h
A549 = test system: A549
ACHN = test system: ACHN
EKVX = test system: EKVX
HOP-92 = test system: HOP-92
K562 = test system: K562
MCF7 = test system: MCF7
MDA-MB-231 = test system: MDA-MB-231
MDA-N = test system: MDA-N
NCI-H226 = test system: NCI-H226
NCI/ADR-RES = test system: NCI/ADR-RES
OVCAR-5 = test system: OVCAR-5
PC-3 = test system: PC-3
SF-539 = test system: SF-539
SK-MEL-28 = test system: SK-MEL-28
SR = test system: SR
SW-620 = test system: SW-620
UO-31 = test system: UO-31
COLO 205 = test system: COLO 205
Hs-578T = test system: Hs-578T
TK-10 = test system: TK-10

Measured: GI50

C=C(OC1C(C)=C2C(C1OC(=O)CCCCCCC)C(C)(OC(C)=O)CC(OC(=O)CCC)C1(O)C2OC(=O)C1(C)O)/C(C)=C/C (stereo not drawn)
active: A549 0.0125 µM | ACHN 0.000585 µM | EKVX 0.0334 µM | HOP-92 0.0125 µM | K562 0.0125 µM | MCF7 0.0125 µM | MDA-MB-231 < 0.0001 µM | MDA-N < 0.0001 µM | NCI-H226 0.0641 µM | NCI/ADR-RES 0.478 µM | OVCAR-5 0.034 µM | PC-3 < 0.0001 µM | SF-539 0.0125 µM | SK-MEL-28 0.0125 µM | SR 0.000145 µM | SW-620 0.0125 µM | UO-31 0.115 µM

N#Cc1c(N2CCCC2)ncn(Cc2ccccc2)c1=O
inactive: A549 > 100 µM | ACHN > 100 µM | COLO 205 > 100 µM | EKVX > 100 µM | HOP-92 > 100 µM | Hs-578T > 100 µM | K562 > 100 µM | MDA-N > 100 µM | NCI-H226 > 100 µM | NCI/ADR-RES > 100 µM | OVCAR-5 > 100 µM | PC-3 > 100 µM | SF-539 > 100 µM | SK-MEL-28 > 100 µM | SR > 100 µM | SW-620 > 100 µM | TK-10 > 100 µM | UO-31 > 100 µM

c1ccc2/c3[nH]/c(c2c1)=N\c1ccc(cc1)-c1nc2cc(ccc2o1)/N=c1/[nH]/c(c2ccccc12)=N/c1ccc2nc(oc2c1)-c1ccc(cc1)\N=3
inactive: ACHN > 100 µM | COLO 205 > 100 µM | EKVX > 100 µM | Hs-578T > 100 µM | K562 > 100 µM | MCF7 > 100 µM | MDA-N > 100 µM | NCI/ADR-RES 32.1 µM | OVCAR-5 > 100 µM | PC-3 > 100 µM | SK-MEL-28 > 100 µM | SR > 100 µM | SW-620 > 100 µM | UO-31 > 100 µM

CN1C(=O)[C@@]2(C=CC3(CC2)OCCO3)c2ccccc21
inactive: A549 > 50 µM | ACHN 49.5 µM | COLO 205 > 50 µM | EKVX 49.2 µM | HOP-92 > 50 µM | K562 > 50 µM | MCF7 48.5 µM | MDA-MB-231 > 50 µM | MDA-N > 50 µM | NCI-H226 > 50 µM | NCI/ADR-RES > 50 µM | OVCAR-5 > 50 µM | PC-3 > 45.4 µM | SK-MEL-28 > 50 µM | SR > 50 µM | SW-620 > 50 µM | TK-10 > 50 µM | UO-31 > 50 µM

O=C(Cc1cccs1)N[C@@H]1C(=O)N2C(C(=O)OC(c3ccccc3)c3ccccc3)=C(CO)CS[C@H]12
active: NCI-H226 0.0283 µM
inactive: A549 > 100 µM | ACHN 91.8 µM | COLO 205 > 100 µM | EKVX > 100 µM | HOP-92 > 100 µM | K562 > 100 µM | MCF7 > 100 µM | MDA-MB-231 > 100 µM | MDA-N > 100 µM | NCI/ADR-RES 96.6 µM | OVCAR-5 > 100 µM | PC-3 > 100 µM | SF-539 > 100 µM | SR 47.4 µM | SW-620 > 100 µM | TK-10 > 100 µM | UO-31 17.9 µM

CC1(C)OCC(C2OC(OC(=O)c3ccc(C(F)(F)F)cc3)C3OC(C)(C)OC23)O1 (stereo not drawn)
inactive: A549 > 77.4 µM | ACHN > 77.4 µM | COLO 205 > 77.4 µM | EKVX > 77.4 µM | K562 > 77.4 µM | MCF7 53.3 µM | MDA-MB-231 63 µM | MDA-N > 77.4 µM | NCI-H226 > 77.4 µM | NCI/ADR-RES 62.1 µM | OVCAR-5 > 77.4 µM | PC-3 > 77.4 µM | SF-539 > 77.4 µM | SK-MEL-28 > 77.4 µM | SR 23.4 µM | SW-620 > 77.4 µM | TK-10 > 77.4 µM | UO-31 19 µM
